Measured values from patent publication US20200187502A1, “MICROBIOCIDAL OXADIAZOLE DERIVATIVES” (SYNGENTA PARTICIPATIONS AG, priority 2017, published 2020).

How the values were obtained:
[1] = test system: Puccinia recondita f. Sp. Tritici; assay: Fungicidal activity, wheat leaf disc curative (brown rust); assay type: in vivo; conditions: foliar, 200 ppm in the applied formulation, wheat leaf segments cv. Kanzler, curative (applied 1 day after inoculation), compared to untreated control, 6 to 8 days after application, read-out: disease control
Method in brief: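 Curative leaf-segment test, cv. Kanzler: spore inoculation, dark storage 19° C/75% RH, compound spray 1 day post-inoculation. Then 12 h light/12 h dark, 19° C, 75% RH. Read-out: % disease control vs untreated check, 6–8 d after application.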

[2] = test system: Puccinia recondita f. Sp. Tritici; assay: Fungicidal activity, wheat leaf disc preventative (brown rust); assay type: in vivo; conditions: foliar, 200 ppm in the applied formulation, wheat leaf segments cv. Kanzler, compared to untreated control, 7 to 9 days after application, read-out: disease control
Method in brief: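 Preventative leaf-segment test: spray application of diluted formulated compound on wheat cv. Kanzler, spore inoculation after 1 day. Percent control relative to untreated segments rated 7 to 9 days post-application, with incubation at 19° C, 75% relative humidity, 12 h photoperiod.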

[3] = test system: Glomerella lacenarium (Colletotrichum lacenarium); assay: Fungicidal activity, liquid culture, cucumber preventative (anthracnose); assay type: cell-based; conditions: 20 ppm in the applied formulation, liquid culture in PDB, inhibition of growth measured photometrically 3 to 4 days after application, compared to untreated control, read-out: disease control
Method in brief: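 PDB broth seeded with cryo-stored conidia, added onto compound (DMSO solution) in 96-well plates; 24° C.; photometric growth read at 3–4 d post-application; % inhibition vs untreated check.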

CC(C)C(=O)N(Cc1ccc(-c2noc(C(F)(F)F)n2)s1)C(C)C [Compound 4.11, N-isopropyl-2-methyl-N-[[5-[5-(trifluoromethyl)-1,2,4-oxadiazol-3-yl]-2-thienyl]methyl]propanamide]
≥ 80%: pest or weed control at 200 ppm [1] | pest or weed control at 200 ppm [2] | inhibition of growth at 20 ppm [3]

CC(C)N(Cc1ccc(-c2noc(C(F)(F)F)n2)s1)C(=O)C1(C)COC1 [Compound 5.32, N-isopropyl-3-methyl-N-[[5-[5-(trifluoromethyl)-1,2,4-oxadiazol-3-yl]-2-thienyl]methyl]oxetane-3-carboxamide]
≥ 80%: pest or weed control at 200 ppm [1] | pest or weed control at 200 ppm [2] | inhibition of growth at 20 ppm [3]

O=C(N1CCCO1)N(Cc1ccc(-c2noc(C(F)(F)F)n2)s1)C1CC1 [Compound 5.61, N-cyclopropyl-N-[[5-[5-(trifluoromethyl)-1,2,4-oxadiazol-3-yl]-2-thienyl]methyl]isoxazolidine-2-carboxamide]
≥ 80%: pest or weed control at 200 ppm [1] | pest or weed control at 200 ppm [2] | inhibition of growth at 20 ppm [3]

CC1(C(=O)N(Cc2ccc(-c3noc(C(F)(F)F)n3)s2)C2CC2)COC1 [Compound 5.41, N-cyclopropyl-3-methyl-N-[[5-[5-(trifluoromethyl)-1,2,4-oxadiazol-3-yl]-2-thienyl]methyl]oxetane-3-carboxamide]
≥ 80%: pest or weed control at 200 ppm [1] | pest or weed control at 200 ppm [2] | inhibition of growth at 20 ppm [3]

CC(C)C(=O)N(Cc1ccc(-c2noc(C(F)(F)F)n2)s1)C1CC1 [Compound 4.3, N-cyclopropyl-2-methyl-N-[[5-[5-(trifluoromethyl)-1,2,4-oxadiazol-3-yl]-2-thienyl]methyl]propanamide]
≥ 80%: pest or weed control at 200 ppm [1] | pest or weed control at 200 ppm [2] | inhibition of growth at 20 ppm [3]

CCN(Cc1ccc(-c2noc(C(F)(F)F)n2)s1)C(=O)C1CCOC1 (stereo not drawn) [Compound 5.10, N-ethyl-N-[[5-[5-(trifluoromethyl)-1,2,4-oxadiazol-3-yl]-2-thienyl]methyl]tetrahydrofuran-3-carboxamide]
≥ 80%: pest or weed control at 200 ppm [1] | pest or weed control at 200 ppm [2] | inhibition of growth at 20 ppm [3]

CCCN(CC1CC1)C(=O)N(CC)Cc1ccc(-c2noc(C(F)(F)F)n2)s1 [Compound 5.53, 1-(cyclopropylmethyl)-3-ethyl-1-propyl-3-[[5-[5-(trifluoromethyl)-1,2,4-oxadiazol-3-yl]-2-thienyl]methyl]urea]
≥ 80%: pest or weed control at 200 ppm [1] | pest or weed control at 200 ppm [2] | inhibition of growth at 20 ppm [3]

CN(Cc1ccc(-c2noc(C(F)(F)F)n2)s1)C(=O)CC#N [Compound 4.39, 2-cyano-N-methyl-N-[[5[5-(trifluoromethyl)-1,2,4-oxadiazol-3-yl]-2-thienyl]methyl]acetamide]
≥ 80%: pest or weed control at 200 ppm [1] | pest or weed control at 200 ppm [2] | inhibition of growth at 20 ppm [3]

CCOC(=O)N(Cc1ccc(-c2noc(C(F)(F)F)n2)s1)C1CC1 [Compound 4.4, ethyl N-cyclopropyl-N-[[5-[5-(trifluoromethyl)-1,2,4-oxadiazol-3-yl]-2-thienyl]methyl]carbamate]
≥ 80%: pest or weed control at 200 ppm [1] | pest or weed control at 200 ppm [2] | inhibition of growth at 20 ppm [3]

CN(Cc1ccc(-c2noc(C(F)(F)F)n2)s1)C(=O)C(=O)C(C)(C)C [Compound 6.48, N,3,3-trimethyl-2-oxo-N-[[5-[5-(trifluoromethyl)-1,2,4-oxadiazol-3-yl]-2-thienyl]methyl]butanamide]
≥ 80%: pest or weed control at 200 ppm [1] | pest or weed control at 200 ppm [2] | inhibition of growth at 20 ppm [3]

CC(C)N(Cc1ccc(-c2noc(C(F)(F)F)n2)s1)C(=O)C1CCOC1 (stereo not drawn) [Compound 5.28, N-isopropyl-N-[[5-[5-(trifluoromethyl)-1,2,4-oxadiazol-3-yl]-2-thienyl]methyl]tetrahydrofuran-3-carboxamide]
≥ 80%: pest or weed control at 200 ppm [1] | pest or weed control at 200 ppm [2] | inhibition of growth at 20 ppm [3]

CCC(=O)N(C)Cc1ccc(-c2noc(C(F)(F)F)n2)s1 [Compound 4.36, N-methyl-N-[[5-[5-(trifluoromethyl)-1,2,4-oxadiazol-3-yl]-2-thienyl]methyl]propanamide]
≥ 80%: pest or weed control at 200 ppm [1] | pest or weed control at 200 ppm [2] | inhibition of growth at 20 ppm [3]

CN(CC#N)C(=O)N(Cc1ccc(-c2noc(C(F)(F)F)n2)s1)C1CC1 [Compound 4.86, 1-(cyanomethyl)-3-cyclopropyl-1-methyl-3-[[5-[5-(trifluoromethyl)-1,2,4-oxadiazol-3-yl]-2-thienyl]methyl]urea]
≥ 80%: pest or weed control at 200 ppm [1] | pest or weed control at 200 ppm [2] | inhibition of growth at 20 ppm [3]

COCC(=O)N(Cc1ccc(-c2noc(C(F)(F)F)n2)s1)C(C)C [Compound 4.42, N-isopropyl-2-methoxy-N-[[5-[5-(trifluoromethyl)-1,2,4-oxadiazol-3-yl]-2-thienyl]methyl]acetamide]
≥ 80%: pest or weed control at 200 ppm [1] | pest or weed control at 200 ppm [2] | inhibition of growth at 20 ppm [3]

CCN(Cc1ccc(-c2noc(C(F)(F)F)n2)s1)C(=O)C1CCC1 [Compound 5.11, N-ethyl-N-[[5-[5-(trifluoromethyl)-1,2,4-oxadiazol-3-yl]-2-thienyl]methyl]cyclobutanecarboxamide]
≥ 80%: pest or weed control at 200 ppm [1] | pest or weed control at 200 ppm [2] | inhibition of growth at 20 ppm [3]

CNC(=O)N(OC)C(C)c1ccc(-c2noc(C(F)(F)F)n2)s1 (stereo not drawn) [Compound 1.50, 1-methoxy-3-methyl-1-[1-[5-[5-(trifluoromethyl)-1,2,4-oxadiazol-3-yl]-2-thienyl]ethyl]urea]
≥ 80%: pest or weed control at 200 ppm [1] | pest or weed control at 200 ppm [2] | inhibition of growth at 20 ppm [3]

CC1(C(=O)N(Cc2ccc(-c3noc(C(F)(F)F)n3)s2)C2CC2)CC1 [Compound 5.39, N-cyclopropyl-1-methyl-N-[[5-[5-(trifluoromethyl)-1,2,4-oxadiazol-3-yl]-2-thienyl]methyl]cyclopropanecarboxamide]
≥ 80%: pest or weed control at 200 ppm [1] | pest or weed control at 200 ppm [2] | inhibition of growth at 20 ppm [3]

CC(=O)C(=O)N(Cc1ccc(-c2noc(C(F)(F)F)n2)s1)C1CC1 [Compound 6.11, N-cyclopropyl-2-oxo-N-[[5-[5-(trifluoromethyl)-1,2,4-oxadiazol-3-yl]-2-thienyl]methyl]propanamide]
≥ 80%: pest or weed control at 200 ppm [1] | pest or weed control at 200 ppm [2] | inhibition of growth at 20 ppm [3]

CCN(Cc1ccc(-c2noc(C(F)(F)F)n2)s1)C(=O)N1CCCO1 [Compound 5.52, N-ethyl-N-[[5-[5-(trifluoromethyl)-1,2,4-oxadiazol-3-yl]-2-thienyl]methyl]isoxazolidine-2-carboxamide]
≥ 80%: pest or weed control at 200 ppm [1] | pest or weed control at 200 ppm [2] | inhibition of growth at 20 ppm [3]

CCC(=O)C(=O)N(CC)Cc1ccc(-c2noc(C(F)(F)F)n2)s1 [Compound 6.42, N-ethyl-2-oxo-N-[[5-[5-(trifluoromethyl)-1,2,4-oxadiazol-3-yl]-2-thienyl]methyl]butanamide]
≥ 80%: pest or weed control at 200 ppm [1] | pest or weed control at 200 ppm [2] | inhibition of growth at 20 ppm [3]

CCCC(=O)N(Cc1ccc(-c2noc(C(F)(F)F)n2)s1)OCC(F)F [Compound 4.63, N-(2,2-difluoroethoxy)-N-[[5-[5-(trifluoromethyl)-1,2,4-oxadiazol-3-yl]-2-thienyl]methyl]butanamide]
≥ 80%: pest or weed control at 200 ppm [1] | pest or weed control at 200 ppm [2] | inhibition of growth at 20 ppm [3]

COCCN(CCOC)C(=O)N(C)Cc1ccc(-c2noc(C(F)(F)F)n2)s1 [Compound 4.80, 1,1-bis(2-methoxyethyl)-3-methyl-3-[[5-[5-(trifluoromethyl)-1,2,4-oxadiazol-3-yl]-2-thienyl]methyl]urea]
≥ 80%: pest or weed control at 200 ppm [1] | pest or weed control at 200 ppm [2] | inhibition of growth at 20 ppm [3]

CN(Cc1ccc(-c2noc(C(F)(F)F)n2)s1)C(=O)C(=O)c1ccccc1 [Compound 6.47, N-methyl-2-oxo-2-phenyl-N-[[5-[5-(trifluoromethyl)-1,2,4-oxadiazol-3-yl]-2-thienyl]methyl]acetamide]
≥ 80%: pest or weed control at 200 ppm [1] | pest or weed control at 200 ppm [2] | inhibition of growth at 20 ppm [3]

CCCN(CC1CC1)C(=O)N(C)Cc1ccc(-c2noc(C(F)(F)F)n2)s1 [Compound 5.57, 1-(cyclopropylmethyl)-3-methyl-1-propyl-3-[[5-(5-(trifluoromethyl)-1,2,4-oxadiazol-3-yl]-2-thienyl]methyl]urea]
≥ 80%: pest or weed control at 200 ppm [1] | pest or weed control at 200 ppm [2] | inhibition of growth at 20 ppm [3]

O=C(C1CCOC1)N(Cc1ccc(-c2noc(C(F)(F)F)n2)s1)C1CC1 (stereo not drawn) [Compound 5.37, N-cyclopropyl-N-[[5-[5-(trifluoromethyl)-1,2,4-oxadiazol-3-yl]-2-thienyl]methyl]tetrahydrofuran-3-carboxamide]
≥ 80%: pest or weed control at 200 ppm [1] | pest or weed control at 200 ppm [2] | inhibition of growth at 20 ppm [3]

CC(=O)NCC(=O)N(Cc1ccc(-c2noc(C(F)(F)F)n2)s1)C1CC1 [Compound 4.53, 2-acetamido-N-cyclopropyl-N-[[5-[5-(trifluoromethyl)-1,2,4-oxadiazol-3-yl]-2-thienyl]methyl]acetamide]
≥ 80%: pest or weed control at 200 ppm [1] | pest or weed control at 200 ppm [2] | inhibition of growth at 20 ppm [3]
